Source: the NIST ThermoML archive (doi:10.1021/acs.jced.5b00682)

What was measured:
[1] = 101.33 kPa, Liquid, Alternating current cell with electrodes
[2] = xn = mol fraction of the nth substance listed; conditions: 101 kPa, Liquid, Frequency=0.001 MHz, Alternating current cell with electrodes

O=[N+]([O-])[O-].[K+] [potassium nitrate]
[1]
Conditions	electrical conductivity [S/m]
618.5 K	64.7
623.5 K	66.2
624.6 K	66.5
626.5 K	67.1
627.9 K	67.5
628.4 K	67.7
628.5 K	67.7
630.5 K	68.3
631.5 K	68.5
633.5 K	69.1
633.6 K	69.1
633.8 K	69.2
636.7 K	70.1
638.5 K	70.6
648.5 K	73.4
649.6 K	73.7
653.5 K	74.9
658.5 K	76.3
659.6 K	76.6
663.5 K	77.7
665 K	78.2

O=[N+]([O-])[O-].[Na+] [sodium nitrate]
[1]
Conditions	electrical conductivity [S/m]
583 K	98.7
593 K	103
603 K	108
613 K	112
623 K	116
633 K	121
643 K	125

[Cl-].[Cs+] [cesium chloride] + [Cl-].[Li+]
electrical conductivity [S/m], [2]
Conditions	x1 = 0.42	x1 = 0.425
593.5 K	33.3	–
598.5 K	35.5	–
603 K	–	33.3
603.5 K	37.9	–
608 K	–	35.5
610.5 K	41.1	–
613 K	–	37.5
613.5 K	42.4	–
618 K	–	39.8
623 K	–	42
623.5 K	47.1	–
628 K	–	44.2
628.5 K	49.5	–
629 K	52.4	–
633 K	–	46.5
633.5 K	52	–
638 K	57.1	48.8
643 K	–	51.2
643.5 K	57	–
648 K	–	53.4
650 K	62.1	–
650.5 K	60.5	–
653 K	–	55.9
653.5 K	62	–
658 K	66.5	58.2
663 K	–	60.6
663.5 K	67.1	–
668 K	–	63
670 K	72.1	–
670.5 K	70.6	–
673 K	–	65.4
673.5 K	72.1	–
678 K	76.6	67.8
683 K	–	70.1
683.5 K	77.2	–
688 K	–	72.5
690 K	82.2	–
690.5 K	80.6	–
693 K	–	74.9
693.5 K	82.2	–
698 K	86.9	77.1
703 K	–	79.6
703.5 K	87	–
708 K	–	81.7
710 K	91.8	–
710.5 K	90.2	–
713 K	–	84
718 K	97.1	86.3
723 K	–	88.4
